Consider two molecules from patent US20210068659A1, “Use of Octafluorocyclobutane for Lung Imaging” (Lakehead University, priority 2019, published 2021).

Data set [1] is described as follows: Measured relaxation parameters (19F MRI relaxation times) of pure gases and gas-O2 mixtures in vitro. It is filed as physicochemical. Particulars: for T2′ / T1: in vitro, pure gas or gas-O2 breathing mixture; for T1: spin-lattice relaxation time. The text has this:
The relaxation times for OFCB-O2 mixture In Vivo should be measured experimentally. We measured the relaxation times for pure OFCB and OFCB-O2 mixture in vitro.
While we were not first who measured the relaxation times for pure OFCB, to our knowledge, we are the first who characterized the OFCB-O2 breathing mixture.

The nature of data set [2]: Specific Absorption Rate (SAR) / scan safety inferred from the longer spin-lattice relaxation time. The note with it: summary statement. The source says:
While the spin-lattice relaxation time is 60% longer for OFCB compared to PFP, which limits the potential number of signal averages, the longer spin-lattice relaxation means that there are a smaller number of radio pulses with OFCB. This means that the Specific Absorption Rate (SAR) is lower for OFCB-O2 scans. […] The lower SAR value of OFCB scans means that ^19F OFCB lung MRI is safer for patients than MRI scans acquired using other inert fluorinated gases.

On to `FC1(F)C(F)(F)C(F)(F)C1(F)F` [OFCB, octafluorocyclobutane], for which the “spin-lattice relaxation time longer compared to PFP” value in data set [1] (OFCB compared to PFP) is on record as 60%. In data set [1], the “T2′” value came to 10.5 ± 1.8 ms and the T1 is reported as 27.9 ± 0.8 ms. Besides, the “safer compared to PFP” value in data set [2] turned out to be 60%.

Turning to `FC(F)(F)C(F)(F)C(F)(F)F` [PFP, perfluoropropane, reference compound], in data set [1], the “T2′” value came to 6.26 ± 0.27 ms and the T1 was 18.6 ± 0.4 ms.
